Laboratory results taken from publication PMC4977052, “On the Utility of ToxCast™ and ToxPi as Methods for Identifying New Obesogens” (Environmental Health Perspectives, 2016).
Like-named read-outs stand apart in the source and are kept apart here.

Experiments:
PPARγ [1] = details: cited from earlier work; for AC50: PPARγ, NA = not active; for PPARγ agonists: EC10, NCGC: AC10, ToxCast 2014 release; for EC50: gain AC50, ToxCast 2014 release, read-out: PPARγ agonists: EC50, NCGC
COS7 cells = assay: Cytotoxicity in transfected COS7 cells measured as decreased β-galactosidase activity
Method: pCMX-Gal4, pCMX-Gal4-mPPARγ, and pCMX-Gal4-hRXRα were previously described ([Grün et al. 2006]). Transient transfections were performed in COS7 cells as described ([Chamorro-García et al. 2012]). Briefly, COS7 cells were seeded at 15,000 cells per well in 96-well tissue culture plates in 10% calf bovine serum. The following day, cells were transfected in Opti-MEM at ~ 90% confluency. One microgram of CMX-GAL4 effector plasmid was co-transfected with 5 μg tk-(MH100)4-luciferase reporter and 5 μg of CMX-β-galactosidase transfection control plasmids in Opti-MEM® using Lipofectamine® 2000 reagent (Invitrogen™ Life Technologies, Carlsbad, CA, USA), following the manufacturer’s recommended protocol. All chemicals were solvated in dimethyl sulfoxide (DMSO). After overnight incubation, the medium was replaced with Dulbecco’s Modified Eagle Medium (DMEM; HyClone, Logan, UT, USA), 10% resin charcoal stripped fetal bovine serum (FBS) plus ligands at concentrations indicated in the figure legends for an additional 24 hr. DMSO concentration was maintained at 0.05% across all chemical treatments. Cells were lysed and assayed for luciferase and β-galactosidase activity as previously described ([Forman et al. 1995]). All transfections were performed in triplicate and reproduced in multiple experiments. Data are reported as fold induction or reduction over vehicle ([…]) controls ± SEM (standard error of the mean) using standard propagation of error ([Bevington and Robinson 2003]). […] The EC50, EC10, IC50, and IC10 values from NCGC and ToxCast™ are reported from gain AC50 and AC10 values in the ToxCast™ 2014 release ([Filer et al. 2014]).
Figure 1 ToxCast™ Chemical Activity on PPARγ. The ability of a graded dose series of ToxCast™ chemicals to (A) activate or (B) antagonize GAL4-mPPARγ was tested in transiently transfected COS7 cells. (A, B) Data points are averages of triplicate transfections (three biological replicates). […] Data are depicted as (A) fold induction or (B) reduction over vehicle (0.05% DMSO) controls ± SEM. (A) ToxCast™ chemicals were tested in 3-fold serial dilutions from 100 μM through 0.137 μM, with the final data point being 0.05% DMSO. Rosiglitazone serves as a positive control activator. (B) ToxCast™ chemicals were tested in 3-fold serial dilutions from 100 μM, in competition with 50 nM rosiglitazone (Rosi). […] (C) EC50, EC10, IC50, and IC10 values calculated from A and B are reported and compared to commercial assays (see Figure S1). Note: ATG, Attagene GAL-PPARγ activation assay; NCGC, GeneBLAzer® agonist (EC values) or antagonist (IC values) assays. Triphenyltin was previously published ([Kanayama et al. 2005]).

3T3-L1 preadipocytes = assay: 3T3-L1 adipogenesis assay (lipid accumulation, adipogenic gene expression); assay type: cell-based; details: for Adipogenesis 3T3-L1 (result in words): 0.02-20 μM, 5 days after MDI induction; for Adipogenic gene expression (Fabp4, Fsp27, Lpl), QPCR: 3T3-L1, Figure 2A; for Induction of adipogenesis in 3T3-L1 preadipocytes, doses: lipid accumulation, Nile red/Hoechst, Figure 2A
In short: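 After 2-day MDI induction with biotin and pantothenate, 3T3-L1 cells were treated 5 days with chemicals at 0.02–20 μM (0.1% DMSO; 10 μM if toxic). Lipid read as Nile red/Hoechst fluorescence ratio; adipogenic genes by QPCR, 2^ΔΔCt versus 36b4, normalized to DMSO.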

PPARγ [2] = details: cited from earlier work; for AC50: PPARγ, NA = not active; for PPARγ agonists: EC10, ATG: AC10, ToxCast 2014 release; for EC50: gain AC50, ToxCast 2014 release, read-out: PPARγ agonists: EC50, ATG
[3] = system: mouse bone marrow-derived mesenchymal stem cells (mBMSCs); assay type: cell-based; details: for Induction of adipogenesis in mBMSCs, doses: lipid accumulation, Nile red/Hoechst; for Induction of adipogenesis in mBMSCs, doses / Adipogenic gene expression (Fabp4, Fsp27, Lpl), QPCR: Figure 2B; for Adipogenic gene expression (Fabp4, Fsp27, Lpl), QPCR: mBMSCs
Method: A total of 8 × 10^4 cells/well mouse bone marrow-derived mesenchymal stem cells (mBMSCs) (OriCell™) were seeded in 12-well plates in basic medium: high-glucose DMEM (Hyclone) containing 10% calf bovine serum (Premium Select, Atlanta Biologicals), 100 IU/mL penicillin, 100 μg/mL streptomycin, and 1 mM sodium pyruvate. mBMSCs were induced to differentiate in differentiation media (low glucose αMEM containing 15% fetal bovine serum (Premium Select, Atlanta Biologicals), 100 IU/mL penicillin, 100 μg/mL streptomycin and 2 mM L-glutamine) with adipogenic cocktail (500 μM isometylbutylxanthine, 1 μM dexamethasone, 5 μg/mL insulin) and either 500 nM ROSI, 50 nM TBT or ToxCast™ chemicals (as noted for 3T3-L1 cells) for 14 days, replacing the media every 3 days.
Cells were either fixed in 3.7% formaldehyde in phosphate-buffered saline (PBS) for 30 min at room temperature (RT) for lipid quantitation, or homogenized in TriPure (Roche, Mannheim, Germany) for gene expression analysis. For lipid quantitation, fixed cells were washed twice with PBS and maintained in PBS overnight at 4°C to release residual phenol red. Background of cells were measured prior to staining. Cells were stained with 1 μg/mL Nile red (CAS No. 7385-67-3) (to detect lipid accumulation) and 1 μg/mL Hoechst 33342 (ThermoFisher Scientific) (to detect nuclei as a surrogate for cell number) in PBS for 15 min in the dark at RT and washed twice with PBS. […] Background values of Hoechst and Nile red were subtracted from the RFUs after staining and the ratio RFUNile Red:RFUHoechst was calculated. Data are represented as mean ± SEM. Total RNA was isolated using TriPure (Roche) as recommended by the manufacturer. Reverse transcription and quantitative real-time RT-PCR (QPCR) were performed using Transcriptor RT and SYBR® Green Master Mix (Roche). cDNA was quantitated in a LightCycler® 480 System (Roche Diagnostics, Basel, Switzerland) using primer sets listed in Table S4. Each primer set amplified a single band as determined by gel electrophoresis and melting curve analysis. QPCR data were analyzed using the 2^ΔΔCt method ([Livak and Schmittgen 2001]) relative to ribosomal protein 36b4, normalizing to 0.1% DMSO vehicle. Error bars represent the SEM from four to six biological replicates calculated using standard propagation of error ([Bevington and Robinson 2003]).

[4] = ref Filer et al. 2014, read-out: NCGC Agonist AC50, 2014 Release
[5] = ref Filer et al. 2014, read-out: ATG Agonist AC50, 2014 Release
[6] = ref Knudsen et al. 2011, read-out: ATG Agonist AC50, 2011 Release
[7] = ref Knudsen et al. 2011, read-out: NCGC Agonist AC50, 2011 Release

SMILES	AC50 (PPARγ [1]; [4]) [µM]	Concentration at which cytotoxicity (decreased β-galactosidase activity) was observed (COS7 cells; transfected COS7 cells, 24 hr) [µM]	Adipogenesis 3T3-L1 (result in words) (3T3-L1 preadipocytes)	AC50 (PPARγ [2]; [5]) [µM]	AC50 (PPARγ [2]; [6]) [µM]	PPARγ agonists: EC10, NCGC (PPARγ [1]; ref Filer et al. 2014) [µM]	AC50 (PPARγ [1]; [7]) [µM]	EC50 (PPARγ [1]; ref Filer et al. 2014) [µM]	Adipogenic differentiation of mBMSCs (result in words) ([3]; 14 days, Figure 7)	PPARγ agonists: EC10, ATG (PPARγ [2]; ref Filer et al. 2014) [µM]	EC50 (PPARγ [2]; ref Filer et al. 2014) [µM]	Induction of adipogenesis in mBMSCs, doses ([3]; 14 days)	Adipogenic gene expression (Fabp4, Fsp27, Lpl), QPCR [3]	Adipogenic gene expression (Fabp4, Fsp27, Lpl), QPCR (3T3-L1 preadipocytes)	Induction of adipogenesis in 3T3-L1 preadipocytes, doses (3T3-L1 preadipocytes)	Lipid accumulation: TOXIC mark in place of bar [3]	Concentration toxic to mBMSCs ([3]; mouse, 14 days) [µM]	Concentration at which cytotoxicity (decreased β-galactosidase activity) was observed (COS7 cells; African green monkey, 24 h) [µM]	Lipid accumulation: TOXIC mark in place of bar (3T3-L1 preadipocytes)	Concentration toxic to 3T3-L1 cells (3T3-L1 preadipocytes; mouse, 5 days) [µM]
O=[N+]([O-])c1cc(C(F)(F)F)c(Cl)c([N+](=O)[O-])c1Nc1ncc(C(F)(F)F)cc1Cl [Fluazinam]	0.07	100	Negative	1.2	0.51	–	–	–	–	–	–	–	–	–	–	–	–	–	–	–
Fc1ccc(Oc2ccnc3cc(Cl)cc(Cl)c23)cc1 [Quinoxyfen]	40.6	–	Positive	5.1	6.6	2.44	6.7	40.6	could differentiate these uncommitted stem cells into adipocytes	3.98	5.12	–	–	–	–	–	–	–	–	–
CCC(C)(C)C(=O)OC1=C(c2ccc(Cl)cc2Cl)C(=O)OC12CCCCC2 [Spirodiclofen]	1.6	100	Positive	1.9	3.6	0.17	2.8	1.64	–	0.10	1.85	induced adipogenesis at 10 and 20 μM	increases	increases	induced adipogenesis at all doses tested	–	–	–	–	–
CCC(C)(NC(=O)c1cc(Cl)c(C)c(Cl)c1)C(=O)CCl (stereo not shown) [Zoxamide]	–	–	Positive	1.3	1.5	–	–	–	–	0.18	1.27	induced differentiation at 2 and 10 μM	increases	increases	induced adipogenesis at the lowest dose	TOXIC	≥ 20	≥ 10	TOXIC	≥ 10
